# From the NIST ThermoML archive (doi:10.1016/j.jct.2016.03.026)
# ± gives the expanded uncertainty stated by the source.
# Experiment: xn = mol fraction of the nth substance listed
# Details: 273.15 K, Fluid (supercritical or subcritical phases), Vibrating tube method, x1 = 0.97
structure (smiles),measurement,setting,value
O=C=O [carbon dioxide] + CO,mass density,6475 kPa,953.47 ± 0.8 kg/m3
same,mass density,6500 kPa,953.64 ± 0.8 kg/m3
same,mass density,6525 kPa,953.73 ± 0.8 kg/m3
same,mass density,6550 kPa,953.88 ± 0.8 kg/m3
same,mass density,6575 kPa,954.04 ± 0.8 kg/m3
same,mass density,6600 kPa,954.21 ± 0.8 kg/m3
same,mass density,6625 kPa,954.37 ± 0.8 kg/m3
same,mass density,6650 kPa,954.53 ± 0.8 kg/m3
same,mass density,6675 kPa,954.7 ± 0.8 kg/m3
same,mass density,6700 kPa,954.86 ± 0.8 kg/m3
same,mass density,6725 kPa,955.03 ± 0.8 kg/m3
same,mass density,6750 kPa,955.19 ± 0.8 kg/m3
same,mass density,6775 kPa,955.35 ± 0.8 kg/m3
same,mass density,6800 kPa,955.52 ± 0.8 kg/m3
same,mass density,6825 kPa,955.67 ± 0.8 kg/m3
same,mass density,6850 kPa,955.82 ± 0.8 kg/m3
same,mass density,6875 kPa,955.96 ± 0.8 kg/m3
same,mass density,6900 kPa,956.09 ± 0.8 kg/m3
same,mass density,6925 kPa,956.25 ± 0.8 kg/m3
same,mass density,6950 kPa,956.42 ± 0.8 kg/m3
same,mass density,6975 kPa,956.58 ± 0.8 kg/m3
same,mass density,7000 kPa,956.75 ± 0.8 kg/m3
same,mass density,7025 kPa,956.91 ± 0.8 kg/m3
same,mass density,7050 kPa,956.99 ± 0.8 kg/m3
same,mass density,7075 kPa,957.15 ± 0.8 kg/m3
same,mass density,7100 kPa,957.34 ± 0.8 kg/m3
same,mass density,7125 kPa,957.48 ± 0.8 kg/m3
same,mass density,7150 kPa,957.65 ± 0.8 kg/m3
same,mass density,7175 kPa,957.81 ± 0.8 kg/m3
same,mass density,7200 kPa,957.97 ± 0.8 kg/m3
same,mass density,7225 kPa,958.14 ± 0.8 kg/m3
same,mass density,7250 kPa,958.27 ± 0.8 kg/m3
same,mass density,7275 kPa,958.38 ± 0.8 kg/m3
same,mass density,7300 kPa,958.55 ± 0.8 kg/m3
same,mass density,7325 kPa,958.71 ± 0.8 kg/m3
same,mass density,7350 kPa,958.87 ± 0.8 kg/m3
same,mass density,7375 kPa,959 ± 0.8 kg/m3
same,mass density,7400 kPa,959.12 ± 0.8 kg/m3
same,mass density,7425 kPa,959.28 ± 0.8 kg/m3
same,mass density,7450 kPa,959.45 ± 0.8 kg/m3
same,mass density,7475 kPa,959.61 ± 0.8 kg/m3
same,mass density,7500 kPa,959.77 ± 0.8 kg/m3
same,mass density,7525 kPa,959.94 ± 0.8 kg/m3
same,mass density,7550 kPa,960.02 ± 0.8 kg/m3
same,mass density,7575 kPa,960.18 ± 0.8 kg/m3
same,mass density,7600 kPa,960.35 ± 0.8 kg/m3
same,mass density,7625 kPa,960.51 ± 0.8 kg/m3
same,mass density,7650 kPa,960.68 ± 0.8 kg/m3
same,mass density,7675 kPa,960.84 ± 0.8 kg/m3
same,mass density,7700 kPa,960.92 ± 0.8 kg/m3
same,mass density,7725 kPa,961.08 ± 0.8 kg/m3
same,mass density,7750 kPa,961.25 ± 0.8 kg/m3
same,mass density,7775 kPa,961.41 ± 0.8 kg/m3
same,mass density,7800 kPa,961.54 ± 0.8 kg/m3
same,mass density,7825 kPa,961.66 ± 0.8 kg/m3
same,mass density,7850 kPa,961.82 ± 0.8 kg/m3
same,mass density,7875 kPa,961.98 ± 0.8 kg/m3
same,mass density,7900 kPa,962.15 ± 0.8 kg/m3
same,mass density,7925 kPa,962.23 ± 0.8 kg/m3
same,mass density,7950 kPa,962.39 ± 0.8 kg/m3
same,mass density,7975 kPa,962.56 ± 0.8 kg/m3
